Results: patent publication US8389500B2, “Fused heterocyclic compounds as ion channel modulators” (Gilead Sciences, Inc., priority 2008, dated 2013)

Assays:
[1] = molecular target: T1, hERG potassium channel (Homo sapiens, UniProt Q12809); test: hERG screening assay (PatchXpress patch clamp, CHO cells); assay type: cell-based; details: hERG in CHO cells, peak current at −50 mV; for hERG Patch Clamp hERG % blk 1 μm: 1 μm test compound; for hERG Patch Clamp hERG % blk 10 μm: 10 μm test compound
T1 construct: expressed in transfected cells; host or cells: CHO (Chinese Hamster Ovary)
T1 sequence (Q12809 whole entry): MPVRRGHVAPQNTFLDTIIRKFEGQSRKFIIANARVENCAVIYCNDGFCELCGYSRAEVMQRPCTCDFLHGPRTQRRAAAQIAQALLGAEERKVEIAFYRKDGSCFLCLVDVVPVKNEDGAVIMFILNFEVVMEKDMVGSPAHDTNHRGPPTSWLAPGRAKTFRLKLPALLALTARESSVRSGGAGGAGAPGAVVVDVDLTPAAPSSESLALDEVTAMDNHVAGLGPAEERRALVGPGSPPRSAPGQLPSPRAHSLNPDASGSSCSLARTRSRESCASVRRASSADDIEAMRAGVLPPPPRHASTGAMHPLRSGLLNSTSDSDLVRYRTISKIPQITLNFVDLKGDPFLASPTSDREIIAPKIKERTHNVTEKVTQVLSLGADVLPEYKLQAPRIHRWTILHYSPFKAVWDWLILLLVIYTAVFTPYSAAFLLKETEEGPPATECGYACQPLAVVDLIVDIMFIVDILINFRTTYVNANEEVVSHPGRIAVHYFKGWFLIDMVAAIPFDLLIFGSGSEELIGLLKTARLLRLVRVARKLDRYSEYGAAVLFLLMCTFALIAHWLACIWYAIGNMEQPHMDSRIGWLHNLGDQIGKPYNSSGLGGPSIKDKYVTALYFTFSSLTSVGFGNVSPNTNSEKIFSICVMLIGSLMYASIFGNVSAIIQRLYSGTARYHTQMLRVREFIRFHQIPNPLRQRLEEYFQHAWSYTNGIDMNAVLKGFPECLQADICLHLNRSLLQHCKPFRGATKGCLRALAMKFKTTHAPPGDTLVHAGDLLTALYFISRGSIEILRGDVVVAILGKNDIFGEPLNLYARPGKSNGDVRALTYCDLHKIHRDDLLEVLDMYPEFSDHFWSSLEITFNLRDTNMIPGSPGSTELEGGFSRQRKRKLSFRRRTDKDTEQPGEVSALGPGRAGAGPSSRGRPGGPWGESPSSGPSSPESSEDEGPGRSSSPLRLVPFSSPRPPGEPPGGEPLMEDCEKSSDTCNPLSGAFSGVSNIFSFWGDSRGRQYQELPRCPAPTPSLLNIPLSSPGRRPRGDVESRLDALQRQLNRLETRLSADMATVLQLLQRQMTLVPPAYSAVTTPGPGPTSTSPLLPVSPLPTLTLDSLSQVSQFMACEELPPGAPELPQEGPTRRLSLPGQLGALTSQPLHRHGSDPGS
Experimental: Compounds were screened to test their activity in blocking the hERG potassium channel. The hERG channel is heterologously expressed in a CHO (Chinese Hamster Ovary) cell line. Cells are maintained with standard tissue culture procedures and stable channel expression is maintained with 500 μg/ml G418 in the culture medium. Cells are harvested for testing on the PatchXpress automated patch clamp with Accumax (Innovative Cell Technologies, San Diego, Calif.) to isolate single cells.
The following solutions are used for electrophysiological recordings. The external solution contains: 2 mM CaCl2; 2 mM MgCl2; 4 mM KCl; 150 mM NaCl; 10 mM Glucose; 10 mM HEPES (pH 7.4 with 1M NaOH, osmolarity). The internal solution contains: 140 mM KCl, 10 mM MgCl2, 6 mM EGTA, 5 mM HEPES, 5 mM ATP (pH adjusted to 7.25 with KOH).
hERG channels are activated when the voltage is stepped to +20 mV from the −80 mV holding potential. During a 5 second step at +20 mV, the channels activate and then largely inactivate, so the currents are relatively small. Upon returning to −50 mV from +20 mV, hERG currents transiently become much larger as inactivation is rapidly removed and then the channel closes. The first step to −50 mV for 300 ms is used as a baseline for measuring the peak amplitude during the step to −50 mV after channel activation. The peak current at −50 mV is measured both under control conditions and after addition of compound.
All compounds are prepared as 10 mM DMSO stocks in glass vials. Stock solutions are mixed by vigorous vortexing and sonication for about 2 minutes at room temperature. For testing, compounds are diluted in glass vials using an intermediate dilution step in pure DMSO and then further diluted to working concentrations in external solution. Dilutions are prepared no longer than 20 minutes before use.
After achieving the whole-cell configuration, cells are monitored for 90 seconds to assess stability and washed with external solution for 66 seconds. The voltage protocol described above is then applied to the cells every 12 seconds and throughout the whole procedure. Only cells with stable recording parameters and meeting specified health criteria are allowed to enter the compound addition procedure.
External solution containing 0.1% DMSO (vehicle) is applied to the cells first to establish the control peak current amplitude. After allowing the current to stabilize for 3 to 5 minutes, 1 μM and then 10 μM test compounds are applied. Each compound concentration is added 4 times and cells are kept in test solution until the effect of the compound reaches steady state or for a maximum of 12 minutes. After addition of test compound, a positive control (1 μM Cisapride) is added and must block >95% of the current for the experiment to be considered valid. Washout in the external solution compartment is performed until the recovery of the current reaches steady state. Data are analyzed using DataXpress, Clampfit (Molecular Devices, Inc., Sunnyvale) and Origin 7 (Originlab Corp.)

[2] = molecular target: T2, wild-type human cardiac sodium channel, hNav1.5 (late sodium current) (Homo sapiens, UniProt Q14524); test: Late INa screening assay (PatchXpress whole cell patch clamp); assay type: cell-based; details: HEK293 hNav1.5, late INa generated with 10 μM Tefluthrin (some experiments 50 nM ATX II); for inhibition at 10 µM: 10 μM test compound, read-out: Late INa % blk (10 μM test cmpd); for inhibition at 1 µM: 1 μM test compound, read-out: Late INa % blk (1 μM test cmpd)
T2 construct: host or cells: HEK293
T2 sequence (Q14524 whole entry): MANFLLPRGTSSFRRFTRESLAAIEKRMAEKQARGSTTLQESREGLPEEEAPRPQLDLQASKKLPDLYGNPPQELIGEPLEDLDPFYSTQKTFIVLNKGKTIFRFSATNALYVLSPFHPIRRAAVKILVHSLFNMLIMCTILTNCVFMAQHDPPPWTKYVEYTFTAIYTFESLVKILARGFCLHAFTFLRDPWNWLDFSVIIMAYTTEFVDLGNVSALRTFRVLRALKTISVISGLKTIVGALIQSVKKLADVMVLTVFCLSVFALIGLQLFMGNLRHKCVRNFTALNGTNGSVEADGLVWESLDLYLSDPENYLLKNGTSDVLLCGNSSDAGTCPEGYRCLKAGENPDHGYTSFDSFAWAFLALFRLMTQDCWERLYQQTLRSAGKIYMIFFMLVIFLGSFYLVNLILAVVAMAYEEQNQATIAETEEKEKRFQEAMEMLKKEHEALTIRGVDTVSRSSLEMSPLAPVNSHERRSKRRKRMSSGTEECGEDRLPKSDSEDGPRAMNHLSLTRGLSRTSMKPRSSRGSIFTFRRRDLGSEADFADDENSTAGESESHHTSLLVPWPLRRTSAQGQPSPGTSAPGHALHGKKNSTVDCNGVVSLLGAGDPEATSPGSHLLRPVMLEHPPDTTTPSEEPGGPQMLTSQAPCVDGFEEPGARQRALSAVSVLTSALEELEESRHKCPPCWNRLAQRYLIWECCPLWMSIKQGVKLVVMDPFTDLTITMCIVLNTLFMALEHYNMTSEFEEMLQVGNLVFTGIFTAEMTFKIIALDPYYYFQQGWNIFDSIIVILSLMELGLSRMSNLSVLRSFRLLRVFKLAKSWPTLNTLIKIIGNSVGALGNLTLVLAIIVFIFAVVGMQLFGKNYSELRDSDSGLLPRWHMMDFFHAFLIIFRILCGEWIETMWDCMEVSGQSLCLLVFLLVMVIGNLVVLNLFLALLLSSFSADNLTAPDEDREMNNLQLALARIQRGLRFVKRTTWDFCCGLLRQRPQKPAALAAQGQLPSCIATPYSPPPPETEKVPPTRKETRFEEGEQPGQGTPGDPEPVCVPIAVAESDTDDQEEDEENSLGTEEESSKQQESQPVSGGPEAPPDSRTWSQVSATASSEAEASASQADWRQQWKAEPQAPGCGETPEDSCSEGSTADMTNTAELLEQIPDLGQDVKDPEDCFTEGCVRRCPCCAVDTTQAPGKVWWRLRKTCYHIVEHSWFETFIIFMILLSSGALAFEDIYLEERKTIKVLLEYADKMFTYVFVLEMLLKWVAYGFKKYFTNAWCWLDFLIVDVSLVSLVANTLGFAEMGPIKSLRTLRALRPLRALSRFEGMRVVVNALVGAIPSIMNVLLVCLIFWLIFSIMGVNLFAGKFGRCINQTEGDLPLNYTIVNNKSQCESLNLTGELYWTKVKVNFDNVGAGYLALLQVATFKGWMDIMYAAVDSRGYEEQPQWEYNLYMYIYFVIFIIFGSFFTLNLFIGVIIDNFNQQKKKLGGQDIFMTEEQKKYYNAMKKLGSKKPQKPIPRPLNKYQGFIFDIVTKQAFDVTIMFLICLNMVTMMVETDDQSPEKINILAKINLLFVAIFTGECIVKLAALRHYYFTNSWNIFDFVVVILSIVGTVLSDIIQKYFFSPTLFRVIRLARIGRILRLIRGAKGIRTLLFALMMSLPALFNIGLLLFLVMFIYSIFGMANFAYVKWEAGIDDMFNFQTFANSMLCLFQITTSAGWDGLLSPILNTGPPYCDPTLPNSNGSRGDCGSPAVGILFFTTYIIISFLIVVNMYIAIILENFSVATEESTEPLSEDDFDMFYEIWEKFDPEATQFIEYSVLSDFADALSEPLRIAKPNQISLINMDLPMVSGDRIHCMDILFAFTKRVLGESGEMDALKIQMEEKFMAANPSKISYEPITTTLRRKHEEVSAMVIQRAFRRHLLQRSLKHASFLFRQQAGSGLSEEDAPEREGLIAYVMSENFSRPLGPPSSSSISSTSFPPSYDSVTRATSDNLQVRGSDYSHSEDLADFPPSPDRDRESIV
In short: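 Late sodium current block was assessed by automated whole cell patch clamp on a PatchXpress 7000A using HEK293 cells stably expressing wild-type human hNav1.5 without beta subunits. Late current was induced with 10 μM Tefluthrin or 50 nM ATX II. Channels were stepped from −120 mV to −20 mV for 250 ms at 0.1 Hz at 24-27° C. Current was normalized to 0Na baseline and expressed as percent block.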

Cc1cc(N(CC(=O)O)S(C)(=O)=O)ccc1-c1ccc(Oc2ccccc2)cc1 [PT-082, N-(2-methyl-4′-phenoxybiphenyl-4-yl)-N-(methylsulfonyl)glycine]
hERG Patch Clamp hERG % blk 1 μm [1]: 10%
hERG Patch Clamp hERG % blk 10 μm [1]: 10%
inhibition at 10 µM [2]: 19.9%

COc1cc(NS(C)(=O)=O)ccc1-c1ccc(Cl)c(F)c1 [PT-003, N-(4′-chloro-3′-fluoro-2-methoxybiphenyl-4-yl)methanesulfonamide]
hERG Patch Clamp hERG % blk 1 μm [1]: 10%
hERG Patch Clamp hERG % blk 10 μm [1]: 28.3%
inhibition at 1 µM [2]: 11.2%
inhibition at 10 µM [2]: 58.3%

CS(=O)(=O)Nc1ccc(-c2ccc(Cl)c(F)c2)c(Cl)c1 [PT-017, N-(2,4′-dichloro-3′-fluorobiphenyl-4-yl)methanesulfonamide]
hERG Patch Clamp hERG % blk 1 μm [1]: 21%
hERG Patch Clamp hERG % blk 10 μm [1]: 80%
inhibition at 1 µM [2]: 34.8%
inhibition at 10 µM [2]: 69.5%

O=S(=O)(Nc1ccc(-c2cccc(OC(F)(F)F)c2)c(Cl)c1)C1CC1 [PT-047, N-[2-chloro-3′-(trifluoromethoxy)biphenyl-4-yl]cyclopropanesulfonamide]
hERG Patch Clamp hERG % blk 1 μm [1]: 10%
hERG Patch Clamp hERG % blk 10 μm [1]: 28.5%
inhibition at 1 µM [2]: 48.6%
inhibition at 10 µM [2]: 77.7%

CS(=O)(=O)Nc1ccc(-c2ccc(F)c(Cl)c2)cc1Cl [PT-030, N-(3,3′-dichloro-4′-fluorobiphenyl-4-yl)methanesulfonamide]
inhibition at 10 µM [2]: 41.4%

Cc1cc(NS(C)(=O)=O)ccc1-c1ccc(F)c(Cl)c1 [PT-039, N-(3′-chloro-4′-fluoro-2-methylbiphenyl-4-yl)methanesulfonamide]
inhibition at 10 µM [2]: 62.9%

CCOC(=O)c1ccc(CN(c2ccc(-c3ccc(OC(C)C)cc3)c(C)c2)S(C)(=O)=O)cc1 [PT-145, ethyl 4-((N-(4′-isopropoxy-2-methylbiphenyl-4-yl)methylsulfonamido)methyl)benzoate]
inhibition at 10 µM [2]: 17.1%

O=S(=O)(Nc1ccc(-c2ccc(Oc3ccccc3)cc2)c(Cl)c1)C1CC1 [PT-048, N-(2-chloro-4′-phenoxybiphenyl-4-yl)cyclopropanesulfonamide]
inhibition at 10 µM [2]: 37.9%

CS(=O)(=O)Nc1ccc(-c2cccc(OC(F)(F)F)c2)c(C(F)(F)F)c1 [PT-015, N-[3′-(trifluoromethoxy)-2-(trifluoromethyl)biphenyl-4-yl]methanesulfonamide]
inhibition at 10 µM [2]: 60.8%

CS(=O)(=O)N(Cc1ccc(C(=O)O)cc1)c1cccc(-c2ccc(C(F)(F)F)c(F)c2)c1 [PT-154, 4-((N-(3′-fluoro-4′-(trifluoromethyl)biphenyl-3-yl)methylsulfonamido)methyl)benzoic acid]
inhibition at 10 µM [2]: 7%

CC(C)NC(=O)c1cc(NS(C)(=O)=O)ccc1-c1ccc(Oc2ccccc2)cc1 [PT-140, N-isopropyl-4-(methylsulfonamido)-4′-phenoxybiphenyl-2-carboxamide]
inhibition at 10 µM [2]: 47.4%

CS(=O)(=O)Nc1ccc(-c2ccc(Oc3ccccc3)cc2)c(N)c1 [PT-163, N-(2-amino-4′-phenoxybiphenyl-4-yl)methanesulfonamide]
inhibition at 10 µM [2]: 54.7%

CS(=O)(=O)Nc1ccc(-c2ccc(F)c(Cl)c2)cc1 [PT-007, N-(3′-chloro-4′-fluorobiphenyl-4-yl)methanesulfonamide]
inhibition at 10 µM [2]: 34.9%

Cc1cc(-c2ccc(Oc3ccccc3)cc2)c(Cl)cc1N(CC(=O)O)S(C)(=O)=O [PT-106, N-(2-chloro-5-methyl-4′-phenoxybiphenyl-4-yl)-N-(methylsulfonyl)glycine]
inhibition at 10 µM [2]: 42%

CNC(=O)c1cc(NS(=O)(=O)C2CC2)ccc1-c1ccc(Oc2ccccc2)cc1 [PT-139, 4-(cyclopropanesulfonamido)-N-methyl-4′-phenoxybiphenyl-2-carboxamide]
inhibition at 10 µM [2]: 43.7%

CS(=O)(=O)Nc1ccc(-c2ccc(C(F)(F)F)cc2)c(NC(=O)c2cccnc2)c1 [PT-165, N-(4-(methylsulfonamido)-4′-(trifluoromethyl)biphenyl-2-yl)nicotinamide]
inhibition at 10 µM [2]: -0.3%

CS(=O)(=O)N(CC(=O)O)c1ccc(-c2ccc(C(F)(F)F)cc2)c(Cl)c1 [PT-111, N-[2-chloro-4′-(trifluoromethyl)biphenyl-4-yl]-N-(methylsulfonyl)glycine]
inhibition at 10 µM [2]: 14.6%

Cc1cc(N(Cc2cccnc2)S(C)(=O)=O)ccc1-c1cccc(OC(F)(F)F)c1 [PT-073, N-[2-methyl-3′-(trifluoromethoxy)biphenyl-4-yl]-N-(pyridin-3-ylmethyl)methanesulfonamide]
inhibition at 10 µM [2]: 64.4%

Cc1cc(-c2ccc(Oc3ccccc3)cc2)c(Cl)cc1N(Cc1ccc(C(=O)O)cc1)S(C)(=O)=O [PT-113, 4-{[(2-chloro-5-methyl-4′-phenoxybiphenyl-4-yl)(methylsulfonyl)amino]methyl}benzoic acid]
inhibition at 10 µM [2]: 34%

Cc1cc(NS(C)(=O)=O)ccc1-c1ccc(Oc2ccccc2)cc1 [PT-046, N-(2-methyl-4′-phenoxybiphenyl-4-yl)methanesulfonamide]
hERG Patch Clamp hERG % blk 1 μm [1]: 10%
hERG Patch Clamp hERG % blk 10 μm [1]: 28.5%

CS(=O)(=O)Nc1ccc(-c2cc(F)cc(F)c2)c(Cl)c1 [PT-068, N-(2-chloro-3′,5′-difluorobiphenyl-4-yl)methanesulfonamide]
inhibition at 10 µM [2]: 42.2%

COc1ccc(NS(C)(=O)=O)cc1-c1ccc(Cl)c(F)c1 [PT-110, N-(4′-chloro-3′-fluoro-6-methoxybiphenyl-3-yl)methanesulfonamide]
inhibition at 10 µM [2]: 39.9%

CS(=O)(=O)Nc1ccc(-c2ccc(Cl)c(C(F)(F)F)c2)c(Cl)c1 [PT-058, N-[2,4′-dichloro-3′-(trifluoromethyl)biphenyl-4-yl]methanesulfonamide]
inhibition at 1 µM [2]: 42.5%
inhibition at 10 µM [2]: 78.5%

CS(=O)(=O)N(Cc1ccc(-c2nnn[nH]2)cc1)c1ccc(-c2ccc(Oc3ccccc3)cc2)c(Cl)c1 [PT-135, N-(4-(1H-tetrazol-5-yl)benzyl)-N-(2-chloro-4′-phenoxybiphenyl-4-yl)methanesulfonamide]
inhibition at 10 µM [2]: 9.7%

CS(=O)(=O)N(Cc1ccc(C(=O)O)cc1)c1ccc(-c2ccc(Oc3ccccc3)cc2)cc1 [PT-156, 4-((N-(4′-phenoxybiphenyl-4-yl)methylsulfonamido)methyl)benzoic acid]
inhibition at 10 µM [2]: 7.9%

COC(=O)c1cc(-c2ccc(Oc3ccccc3)cc2)ccc1NS(=O)(=O)C1CC1 [PT-116, methyl 4-[(cyclopropylsulfonyl)amino]-4′-phenoxybiphenyl-3-carboxylate]
inhibition at 10 µM [2]: 11.2%

CS(=O)(=O)Nc1ccc(-c2ccc(OC(F)(F)F)cc2)c(C(F)(F)F)c1 [PT-014, N-[4′-(trifluoromethoxy)-2-(trifluoromethyl)biphenyl-4-yl]methanesulfonamide]
inhibition at 10 µM [2]: 50.5%

Cc1cc(N(Cc2ccc([N+](=O)[O-])cc2)S(C)(=O)=O)ccc1-c1ccc(Oc2ccccc2)cc1 [PT-143, N-(2-methyl-4′-phenoxybiphenyl-4-yl)-N-(4-nitrobenzyl)methanesulfonamide]
inhibition at 10 µM [2]: 8.7%

Cc1cc(NS(=O)(=O)C2CC2)ccc1-c1ccc(-c2nn[nH]n2)cc1 [PT-158, N-(2-methyl-4′-(2H-tetrazol-5-yl)biphenyl-4-yl)cyclopropanesulfonamide]
inhibition at 10 µM [2]: 2.8%

COc1cc(NS(C)(=O)=O)ccc1-c1cccc(OC(F)(F)F)c1 [PT-010, N-[2-methoxy-3′-(trifluoromethoxy)biphenyl-4-yl]methanesulfonamide]
inhibition at 10 µM [2]: 48.2%

Cc1cc(-c2ccc(Oc3ccccc3)cc2)ccc1NS(C)(=O)=O [PT-042, N-(3-methyl-4′-phenoxybiphenyl-4-yl)methanesulfonamide]
inhibition at 10 µM [2]: 25.5%
